Laboratory results taken from patent publication US20110237528A1, “COMPOSITIONS AND METHODS COMPRISING IMIDAZOLE AND TRIAZOLE DERIVATIVES” (INSTITUTE FOR ONEWORLD HEALTH, priority 2008, published 2011).

Target: T1, CFTR channel in human colonic T84 cells (Homo sapiens, UniProt P13569)
T1 construct: host or cells: T84 human colonic cells
Test: T84 assay (FLIPR membrane potential dye, forskolin/IBMX-stimulated)
Format: cell-based
Conditions: average of at least 2 runs unless marked n = 1
Protocol: For example, Human colonic T84 cells can be acquired from the European Collection of Cell Cultures (ECACC) and grown in standard culture conditions as described by the supplier. On the day before assay 25,000 T84 cells per well are plated into standard black walled, clear bottom 384-well assay plates in standard growth medium consisting of DMEM:F12 with 10% FBS and incubated overnight. […] T84 cells are incubated with the FLIPR Red membrane potential dye for 45 minutes in the presence and absence of test compound before being transferred to a commercially available fluorescence imaging plate reader (FLIPR384, Molecular Devices Corporation). Fluorescence levels are monitored continuously every second for 150 seconds; after an initial 10 second baseline, CFTR channel activity is stimulated through the addition of 10 μM forskolin in the presence of 100 μM of the phosphodiesterase inhibitor iso-butyl-methylxanthine (IBMX). […] CFTR channel opening causes chloride ion efflux and subsequent depolarization of the cells, which is measured by an increase in fluorescence. CFTR inhibitor compounds prevent cell depolarization and the associated increase in fluorescence. […]

T1 sequence (P13569 whole entry): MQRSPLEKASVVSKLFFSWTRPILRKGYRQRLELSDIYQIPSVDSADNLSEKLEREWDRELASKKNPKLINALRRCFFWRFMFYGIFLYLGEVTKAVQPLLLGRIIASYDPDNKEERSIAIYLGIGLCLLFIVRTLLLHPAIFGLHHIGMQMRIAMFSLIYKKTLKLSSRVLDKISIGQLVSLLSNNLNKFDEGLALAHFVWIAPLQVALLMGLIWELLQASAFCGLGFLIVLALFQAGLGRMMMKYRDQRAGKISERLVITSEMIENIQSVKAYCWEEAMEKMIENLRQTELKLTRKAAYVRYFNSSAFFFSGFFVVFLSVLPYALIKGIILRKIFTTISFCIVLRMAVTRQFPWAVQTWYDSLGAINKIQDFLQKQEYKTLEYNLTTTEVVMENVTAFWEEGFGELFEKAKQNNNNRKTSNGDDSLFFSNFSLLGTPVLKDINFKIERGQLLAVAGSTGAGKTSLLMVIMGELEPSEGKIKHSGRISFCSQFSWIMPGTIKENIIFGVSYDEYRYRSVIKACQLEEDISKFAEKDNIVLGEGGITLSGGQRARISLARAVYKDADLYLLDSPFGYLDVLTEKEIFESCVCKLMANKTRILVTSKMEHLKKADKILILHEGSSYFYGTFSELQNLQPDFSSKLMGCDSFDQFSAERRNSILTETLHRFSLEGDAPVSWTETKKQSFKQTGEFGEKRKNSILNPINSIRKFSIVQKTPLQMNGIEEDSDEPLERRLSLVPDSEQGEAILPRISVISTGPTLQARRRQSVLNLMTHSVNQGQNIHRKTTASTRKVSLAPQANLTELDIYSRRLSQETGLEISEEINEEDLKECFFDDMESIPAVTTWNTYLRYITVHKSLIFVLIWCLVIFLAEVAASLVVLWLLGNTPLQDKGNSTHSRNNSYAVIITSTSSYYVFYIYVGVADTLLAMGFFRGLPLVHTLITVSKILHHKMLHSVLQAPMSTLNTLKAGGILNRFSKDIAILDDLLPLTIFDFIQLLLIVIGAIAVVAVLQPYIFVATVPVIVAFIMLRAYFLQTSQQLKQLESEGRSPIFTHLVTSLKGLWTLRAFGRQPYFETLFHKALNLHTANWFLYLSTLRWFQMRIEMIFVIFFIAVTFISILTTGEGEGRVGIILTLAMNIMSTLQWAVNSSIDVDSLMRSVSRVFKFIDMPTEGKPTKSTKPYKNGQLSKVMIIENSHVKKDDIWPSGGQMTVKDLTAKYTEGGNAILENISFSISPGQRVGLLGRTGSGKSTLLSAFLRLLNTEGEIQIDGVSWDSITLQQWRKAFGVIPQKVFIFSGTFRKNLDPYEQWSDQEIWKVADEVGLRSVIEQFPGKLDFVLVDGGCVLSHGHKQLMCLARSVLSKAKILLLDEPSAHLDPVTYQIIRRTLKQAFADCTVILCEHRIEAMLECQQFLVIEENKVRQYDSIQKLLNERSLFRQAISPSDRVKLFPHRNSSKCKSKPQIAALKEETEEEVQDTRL

IC50 [µM]	Structure (SMILES)
≥ 50	O=C(NCc1ccc(Oc2cc(C(F)(F)F)cc(C(F)(F)F)c2)cc1)c1ncn(-c2cc(Cl)c(O)c(Cl)c2)n1 [Compound 62, N-(4-(3,5-bis(trifluoromethyl)phenoxy)benzyl)-1-(3,5-dichloro-4-hydroxyphenyl)-1H-1,2,4-triazole-3-carboxamide]
≥ 50	CN(C)c1cccc(Oc2ccc(CNC(=O)c3ncn(-c4cc(Cl)c(O)c(Cl)c4)n3)cc2)c1 [Compound 64, 1-(3,5-dichloro-4-hydroxyphenyl)-N-(4-(3-(dimethylamino)phenoxy)benzyl)-1H-1,2,4-triazole-3-carboxamide]
